From patent publication US20260193180A1, “AUTOPHAGY INDUCING COMPOUNDS AND USES THEREOF” (SAMSARA THERAPEUTICS INC., priority 2022, published 2026) come the findings set out here.

Series [1] concerns dopaminergic Tyrosine hydroxylase (TH)-positive neurons. Kind of series: Cellular model of Parkinson's disease, MPP+ injury of primary mesencephalic culture. The conditions noted are these: 0.5 μM, MPP+ 4 μM for 48 h. It is filed as cell-based, rat. As to the method:
This model (supplied by Neuro-Sys SAS, France) is based on a primary culture of dopaminergic Tyrosine hydroxylase (TH)-positive neurons injured with the dopaminergic neurons-specific toxin (DA-toxin) 1-methyl-4-phenyl-1,2,3,6 tetrahydropyridine (MPTP) (Dauer and Przedborski, 2003). Any substances reducing DA-toxin neurotoxicity may be useful as a new therapeutic agent for the treatment or prevention of PD.
Primary culture of mesencephalic neurons: Rat dopaminergic neurons were cultured as described by Visanji et al., 2008 and Callizot et al., 2019. Briefly, pregnant female rat (Wistar) of 15 days of gestation were killed using a deep anesthesia with CO2 chamber and a cervical dislocation. The midbrains obtained from 15-day-old rat embryos (Janvier, France) were dissected under a microscope. The embryonic midbrains will be removed and placed in ice-cold medium of Leibovitz (L15) containing 2% of Penicillin-Streptomycin (PS) and 1% of bovine serum albumin (BSA). The ventral portion of the mesencephalic flexure, a region of the developing brain rich in dopaminergic neurons, was used for the cell preparations.
The midbrains were dissociated by trypsinisation for 20 min at 37° C. (solution at a final concentration of 0.05% trypsin and 0.02% EDTA). The reaction was stopped by the addition of Dulbecco's modified Eagle's medium (DMEM) containing DNAase I grade II (0.5 mg/mL) and 10% of foetal calf serum (FCS). Cells were then mechanically dissociated by 3 passages through a 10 ml pipette. Cells were then centrifuged at 180×g for 10 min at +4° C. on a layer of BSA (3.5%) in L15 medium. The supernatant was discarded and the cell pellets re-suspended in a defined culture medium consisting of Neurobasal supplemented with B27 (2%), L-glutamine (2 mM) and 2% of PS solution and 10 ng/mL of Brain-derived neurotrophic factor (BDNF) and 1 ng/mL of Glial-Derived Neurotrophic Factor (GDNF). Viable cells were counted in a Neubauer cytometer using the trypan blue exclusion test. […]

Series [2] can be described thus: Bioavailability / brain exposure in CD1 mice. It is filed as in vivo. Conditions: dose of 30 mg/kg. On the procedure:
The compounds have good properties for oral dosing and readily cross the blood brain barrier. For example, in CD1 mice, Compound 9 has a maximum concentration in brain plasma of 5067 ng/ml after 30 minutes at a dose of 30 mg/kg. Compound 12 has a maximum concentration in brain plasma of 5853 ng/ml after 8 hours at a dose of 30 mg/kg.

With `CCOc1ccc(Cl)cc1CN1CC[C@@H](CN)C1.Cl` [Compound 12, (S)-(1-(5-chloro-2-ethoxybenzyl)pyrrolidin-3-yl)methanamine hydrochloride], in series [1], the “neurite network of TH positive neurons” value is listed as “protected”, the “neuronal survival (total number of TH positive neurons)” value is on record as “improved” and the “α-Synuclein aggregation in dopaminergic neurons” value is given as “reduced”. In addition, in series [2], the “maximum concentration in brain plasma” value came to 5853 ng/mL and the “time of maximum concentration in brain plasma” value was 8 h.
